Here are results for 8 compounds from ChEMBL document CHEMBL1201862, “PubChem BioAssay data set” (2004).

By GI50 is commonly meant the concentration giving 50% growth inhibition.

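Five compound concentrations were applied to cells in 96-well plates for 48 hours; endpoints were derived by simple linear interpolation of the resulting dose-response curve. GI50: concentration for 50% inhibition of growth.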 Activity calls are given as the source filed them. No stated cut-off is given here; in the data, active = GI50 up to about 1.1 µM and inactive = higher.

What all share (assay): DTP human tumour cell line panel, 48 h
Assay [1] relates to ACHN.
Assay [2] deals with RXF 393.
Assay [3] relates to HT-29.
Assay [4] concerns IGROV-1.
The test system of assay [5] is CAKI-1.
In assay [6] the test system is LOX IMVI.
The test system of assay [7] is KM12.
Assay [8] concerns HCT-15.
Assay [9] relates to TK-10.
The test system of assay [10] is SK-OV-3.
For assay [11], the system named is SR.
Assay [12] relates to HCC 2998.
The subject of assay [13] is NCI-H460.
Assay [14] concerns CCRF-CEM.
In assay [15] the test system is NCI-H226.
Assay [16] deals with SK-MEL-5.
Assay [17] concerns A549.
Assay [18] relates to COLO 205.
For assay [19], the system named is RPMI-8226.
For assay [20], the system named is UO-31.

Take `Cc1ccc([N+](=O)[O-])cc1NC(=O)C(=O)C(C(=O)c1ccccc1F)C1OC(=O)c2ccccc21` (configuration not stated): the GI50 is 62.2 µM (inactive) in assay [1]; 20.5 µM (inactive) in [2]; 38.5 µM (inactive) in [3]; 59.7 µM (inactive) in assay [4]; 53.8 µM (inactive) in assay [5]; 27.5 µM (inactive) in [6]. Further, the GI50 in assay [7] was 52.5 µM (inactive); in [8], 26.7 µM; in [9], > 100 µM (inactive); in [10], 46.5 µM (inactive); in assay [11], 30.3 µM (inactive); in [12] it was 29.7 µM (inactive). Further, the GI50 was 38.9 µM (inactive) in assay [13]; 26.8 µM (inactive) in assay [14]; 16 µM (inactive) in assay [15]; 63.1 µM (inactive) in [16]; 50.1 µM (inactive) in assay [17]; 38.9 µM (inactive) in [18]. For the same compound, the GI50 was 29.4 µM (inactive) in assay [19] and 49.1 µM (inactive) in [20].
For `CCOc1cc(/C=N\O)cc(/C=N/O)c1O`, the GI50 is 22.7 µM (inactive) in assay [1]; 14.5 µM (inactive) in assay [2]; 29.4 µM (inactive) in assay [3]; 21.9 µM (inactive) in assay [5]; 22.2 µM (inactive) in assay [6]; 54.3 µM (inactive) in [7]. For the same compound, the GI50 was 31.3 µM in assay [8]; > 100 µM (inactive) in assay [9]; 59.4 µM (inactive) in assay [10]; 29.3 µM (inactive) in [11]; 56.5 µM (inactive) in assay [12]; 31.9 µM (inactive) in assay [13]. The GI50 is 35.3 µM (inactive) in [14]; 37.9 µM (inactive) in [15]; 17.7 µM (inactive) in [16]; 29.5 µM (inactive) in assay [17]; 22.8 µM (inactive) in [18]; 24.7 µM (inactive) in [19]. Further, in [20], the GI50 was 1.2 µM (inactive).
As for `COc1ccccc1NC(=O)/C(=C/c1ccccc1)C(C)=O`, the GI50 was 41.5 µM (inactive) in assay [1]; 20.7 µM (inactive) in assay [2]; 32.3 µM (inactive) in assay [3]; 53 µM (inactive) in assay [4]; 35.1 µM (inactive) in assay [5]; 37.2 µM (inactive) in [6]. The GI50 is 36.9 µM (inactive) in assay [7]; 37.2 µM in [8]; 44.9 µM (inactive) in assay [9]; 44.5 µM (inactive) in [10]; 36.6 µM (inactive) in assay [11]; 36.1 µM (inactive) in assay [12]. For the same compound, the GI50 is 37.2 µM (inactive) in [13]; 29.6 µM (inactive) in assay [14]; 37.1 µM (inactive) in assay [15]; 22.7 µM (inactive) in [16]; 38 µM (inactive) in assay [17]; 35.5 µM (inactive) in assay [19]. Moreover, in assay [20], the GI50 was 56.8 µM (inactive).
For `C=CCNC(=S)N/N=C1\C(=O)Nc2ccc([N+](=O)[O-])cc21`, the GI50 in [1] is 23.3 µM (inactive); in assay [2] it was 16.8 µM (inactive); in [3], 68.7 µM (inactive); in [4], 23.3 µM (inactive); in assay [5], 14.2 µM (inactive); in assay [6] it was 81.8 µM (inactive). In addition, the GI50 in [7] is 46.6 µM (inactive); in [8], 7.57 µM; in assay [9], 26.4 µM (inactive); in [10], 34 µM (inactive); in assay [11] it was 10.3 µM (inactive); in assay [12] it was 23.3 µM (inactive). The GI50 was 16.6 µM (inactive) in assay [13]; 5.13 µM (inactive) in assay [14]; > 100 µM (inactive) in assay [15]; 30.1 µM (inactive) in [16]; 34.2 µM (inactive) in assay [17]; 92 µM (inactive) in assay [18]. Besides, the GI50 in assay [19] is 57.3 µM (inactive); in [20], 31.2 µM (inactive).
For the compound `N#CC1(C#N)C2C=CC(C3CCC=C32)C1(C#N)C#N` (configuration not stated), the GI50 is > 6.37 µM (inactive) in assay [1]; > 10 µM (inactive) in assay [2]; > 10 µM (inactive) in assay [3]; > 10 µM (inactive) in assay [4]; 6.37 µM (inactive) in assay [5]; > 10 µM (inactive) in assay [6]. The GI50 in assay [7] is > 10 µM (inactive); in assay [8], more than 10 µM; in assay [9] it was > 5.7 µM (inactive); in assay [10], > 10 µM (inactive); in [11], 7.4 µM (inactive); in assay [12], > 10 µM (inactive). In addition, the GI50 in assay [13] is > 10 µM (inactive); in [14], 1.91 µM (inactive); in [15] it was > 10 µM (inactive); in [16], > 10 µM (inactive); in assay [17], > 10 µM (inactive); in assay [18], 1.94 µM (inactive). The results for the GI50 in [19] and in [20] were 2.83 µM (inactive) and > 4.32 µM (inactive), respectively.
Take `O=c1c(-c2ccccc2)c(SCCCN2CCCCC2)n(-c2ccccc2)c(=S)n1-c1ccccc1`: the GI50 in assay [1] was 17.4 µM (inactive); in assay [2] it was 14.3 µM (inactive); in assay [4], 17.9 µM (inactive); in assay [5] it was 19.5 µM (inactive); in assay [6] it was 16.3 µM (inactive); in [7], 19.4 µM (inactive). Besides, the GI50 in assay [8] was 17.3 µM; in assay [9], 16.9 µM (inactive); in assay [10], 19.8 µM (inactive); in assay [11], 16.2 µM (inactive); in [12], 3.83 µM (inactive); in assay [13], 16.4 µM (inactive). Also, the GI50 in [14] was 15.7 µM (inactive); in assay [15] it was 15.3 µM (inactive); in assay [16], 16 µM (inactive); in assay [18], 17.6 µM (inactive); in assay [19] it was 17 µM (inactive).
`c1ccc(CSC(SCc2ccccc2)c2cccc3ccccc23)cc1`: the GI50 in assay [1], in [2], in assay [3], in [4], in assay [5] and in [7] was > 10 µM (inactive) throughout. Besides, the GI50 was more than 10 µM in assay [8]; > 10 µM (inactive) in assay [9]; > 10 µM (inactive) in assay [10]; > 10 µM (inactive) in [11]; > 10 µM (inactive) in [12]; > 10 µM (inactive) in [13]. Also, the GI50 was > 10 µM (inactive) in assay [14]; > 10 µM (inactive) in assay [15]; > 10 µM (inactive) in assay [16]; > 10 µM (inactive) in assay [17]; > 10 µM (inactive) in [18]; 9.79 µM (inactive) in assay [19]. Moreover, in [20], the GI50 is > 10 µM (inactive).
For `COc1nc2[nH]ccc2c(=O)[nH]1`, the GI50 in assay [1], in assay [2], in [3], in [4], in [5] and in assay [6] was > 100 µM (inactive) in each case. The GI50 in [7], in assay [9], in assay [11], in assay [12], in assay [13] and in assay [14] was > 100 µM (inactive) throughout. The GI50 was 0.41 µM (active) in assay [15]; > 100 µM (inactive) in assay [16]; > 100 µM (inactive) in assay [17]; > 100 µM (inactive) in assay [18]; > 100 µM (inactive) in [19]; > 100 µM (inactive) in assay [20].
